{
  "source": "patent US7902421B2",
  "about": "“Animal model for schizophrenia” (London Health Sciences Centre Research Inc., priority 2003, dated 2011)",
  "key": {"[1]": {"target": "T1, (Homo sapiens, UniProt P08138)", "T1 sequence (P08138 29-427)": "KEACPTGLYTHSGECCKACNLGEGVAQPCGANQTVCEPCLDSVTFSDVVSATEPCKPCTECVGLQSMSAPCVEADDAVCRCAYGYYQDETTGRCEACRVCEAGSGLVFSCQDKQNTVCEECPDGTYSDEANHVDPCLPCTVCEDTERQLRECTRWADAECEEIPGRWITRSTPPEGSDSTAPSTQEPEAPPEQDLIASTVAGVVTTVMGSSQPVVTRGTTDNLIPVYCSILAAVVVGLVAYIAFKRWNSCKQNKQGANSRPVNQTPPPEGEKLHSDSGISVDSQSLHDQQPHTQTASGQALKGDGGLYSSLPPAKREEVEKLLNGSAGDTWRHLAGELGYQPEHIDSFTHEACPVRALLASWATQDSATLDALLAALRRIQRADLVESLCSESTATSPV", "details": "cited from earlier work"}, "[2]": {"test_system": "subplate cells in the developing prefrontal cortex", "assay": "Apoptosis of subplate cells after neonatal intracerebral injections of nerve growth factor (activated caspase-3 immunoreactivity)", "type": "in vivo, rat", "details": "for apoptosis of subplate cells / neurons: intracerebral injections into developing prefrontal cortex of postnatal rats (250 ng/μl/site, postnatal days 3 and 4)", "experimental": "Neonatal rat pups received daily injections of nerve growth factor into the developing prefrontal cortex at 2, 3 and 4 days of age (similarly other animals such as mice or monkeys can be injected at the appropriate neonatal or fetal period of prefrontal cortical development characterized by the expression of p75 receptor in subplate cells). Scalp of rat pups were sprayed with a topical anesthesia, and 1 μl of nerve growth factor ([…] in saline, human recombinant Nerve growth factor, Cedarlane Laboratories) was pressure injected with a 30 gauges needle into the developing prefrontal cortex on each side. Injections were made 1.5 mm in front of the bregma which is visible through the scalp, 0.5 mm lateral to the midline and 1.5 mm deep to the scalp surface. Injections were made slowly over 10 sec and the needle was left in situ for an additional 30 sec. Pups were kept separated from their mother for approximately 20 min during injecttion sessions. During this time they were kept warm. Control rat pups received exactly similar treatment but injected with saline. Experimental and control rats were marked with an ear punch on the right and left ears, respectively. After injection session pups were returned to their mother and allowed to grow under standard conditions.\nBoth neonatally nerve growth factor or saline injected rats were anesthetized with an intraperitoneal injection of sodium pentobarbital (Somnatol, 40 mg/kg) at 5 weeks or 10 weeks of age and perfused transcardially with a solution containing 4% freshly depolymerized paraformaldehyde in 0.1 M phosphate buffer at pH 7.4. Brains were removed, cryoprotected in 18% buffered-sucrose for 24 hours at 4° C., and sectioned in a freezing microtome 40 μm thick sections were processed for Nissl staining and immunohistochemistry as described previously (Rajakumar, Elisevich and Flumerfelt, Journal of Comparative Neurology 1994, 350:324-336)."}, "[3]": {"test_system": "subcortical dopamine responsivity", "assay": "Behavioral testing (sniffing, locomotion, rearing) after saline or d-amphetamine challenge", "type": "in vivo, rat", "experimental": "Animals at 5 or 10 weeks of age were habituated to the testing area for three hours each on 2 consecutive days. On the 3rd day, animals were habituated for an hour and then injected with saline (0.2 ml, l.p.) and their behaviors were monitored visually for an hour. They were then injected with d-amphetamine (5 mg/kg, l.p.) and their behaviors were monitored for an additional one-hour. An examiner who was blind to the animal groups performed testing. Several behavioral measures including locomotion, rearing (vertical activity), sniffing and grooming were monitored. Different cohorts of animals were used for testing at 5 and 10 weeks. For stress response, animals were submerged in water at room temperature for 5 min in a large container, then they were placed in a plexiglass box and their behaviors (similar to those described above) were visually monitored,\nFor novelty induced stress response, animals were subjected to novel environment or object and their motor behaviors were monitored. Behavioral data was analyzed using standard statistical methods (Rajakumar, Laurier, Niznik and Stoessi, Synapse 1997, 26: 199-208)."}, "prefrontal cortex": {"test_system": "prefrontal cortex", "assay": "Histological examination and immunohistochemistry of brains of neonatally injected rats", "type": "in vivo, rat", "experimental": "[…] Brains were removed, cryoprotected in 18% buffered-sucrose for 24 hours at 4° C., and sectioned in a freezing microtome 40 μm thick sections were processed for Nissl staining and immunohistochemistry as described previously (Rajakumar, Elisevich and Flumerfelt, Journal of Comparative Neurology 1994, 350:324-336)."}, "[4]": {"test_system": "dopaminergic fibers from the lower layers of the prefrontal cortex", "assay": "Intracerebral stereotaxic injections of 6-hydroxydopamine eliminating dopaminergic fibers in adult rats", "type": "in vivo, rat", "details": "unpublished work by the inventor", "source_text": "In the normal brain, dopaminergic fibers are distributed mainly in lower layers of the prefrontal cortex, Dopaminergic-fibers are abnormally distributed within the prefrontal cortex in schizophrenic patients with very low density in the lower layers (Akil, Pierri, Whitehead, Edgar, Mohila, Sampson and Lewis, American Journal of Psychiatry 1999, 156:1580-1589). […] Based on this work the inventor believed that abnormal laminar distribution of dopaminergic fibers in the prefrontal cortex may be responsible for the enhanced dopaminergic activity seen in schizophrenia. While abnormal distribution of dopaminergic fibers has been described in the prefrontal cortex in schizophrenic brains (Akil, Pierri, Whitehead, Edgar, Mohila, Sampson and Lewis, American Journal of Psychiatry 1999, 156:1580-1589), this has never implicated in the manifestation of dopaminergic hyperactivity."}, "[5]": {"details": "at 5 weeks, saline or d-amphetamine challenge, n=30"}, "[6]": {"details": "at 10 weeks, d-amphetamine challenge, n=36"}, "[7]": {"details": "adult rat, neonatal injections, vs control"}, "[8]": {"details": "at 5 weeks, d-amphetamine 5 mg/kg i.p. vs saline, control and experimental animals"}},
  "note": "“Also recorded” adds a separate entry of the source.",
  "data": [
    {"compound": "Pro-nerve growth factor", "values": [
      {"measurement": "increased affinity for p76 receptors", "setting": "[1]", "result": "> 1000", "unit": "fold"}
    ]},
    {"compound": "nerve growth factor", "values": [
      {"measurement": "apoptosis of subplate cells / neurons", "setting": "[2]", "result": "resulting in apoptosis of the subplate cells; also recorded: specifically induced apoptosis of subplate neurons"},
      {"measurement": "apoptosis of subplate cells / neurons", "setting": "[2]; listed as NGF", "result": "induces apoptosis"},
      {"measurement": "effect on the hippocampus or other parts of the cerebral cortex", "setting": "[2]; method of injection adopted, neonatal period", "result": "does not affect the hippocampus or any other parts of the cerebral cortex"},
      {"measurement": "mechanical, ischemic or inflammatory lesion", "setting": "[2]; postnatal rat brain, intracerebral injections", "result": "without causing any substantial mechanical, ischemic or inflammatory lesion"},
      {"measurement": "immunoreactivity of activated caspase-3 in subplate cells", "setting": "[2]; six day-old rat pup, daily intracerebral injections on postnatal days 2, 3 and 4", "result": "undergoing apoptosis"},
      {"measurement": "subcortical dopaminergic responsivity", "setting": "[3]; adult (after the 8th week), injections of d-amphetamine", "result": "enhanced subcortical dopamine responsivity; also recorded: increased subcortical dopaminergic responsivity"},
      {"measurement": "response to changes in the environment", "setting": "[3]; after the 8th week, neonatally injected rats", "result": "prolonged and enhanced response"},
      {"measurement": "total duration of locomotor behavior, experimental vs control animals", "setting": "[3]; [5]", "result": "no differences"},
      {"measurement": "total duration of rearing behavior, experimental vs control animals", "setting": "[3]; [5]", "result": "no differences"},
      {"measurement": "total duration of sniffing behavior, experimental vs control animals", "setting": "[3]; [5]", "result": "no differences"},
      {"measurement": "total duration of locomotor behavior, experimental vs control animals", "setting": "[3]; [6]", "result": "significantly increased locomotor behavior"},
      {"measurement": "total duration of rearing behavior, experimental vs control animals", "setting": "[3]; [6]", "result": "significantly increased rearing"},
      {"measurement": "total duration of sniffing behavior, experimental vs control animals", "setting": "[3]; at 10 weeks, saline or d-amphetamine challenge, n=36", "result": "no differences"},
      {"measurement": "growth and behavioral patterns, experimental vs control rats", "setting": "[3]; until 8 weeks of age", "result": "comparable growth and behavioral patterns"},
      {"measurement": "parvalbumin neuronal number in the prefrontal cortex", "setting": "prefrontal cortex; adult rat, control vs NGF-treated", "result": "comparable"},
      {"measurement": "GABA transporter-1 immunoreactive synapses in the prefrontal cortex", "setting": "prefrontal cortex; [7]", "result": "fewer; also recorded: markedly diminished"},
      {"measurement": "density of tyrosine hydroxylase labeled (dopaminergic) fibers in lower layers of the prefrontal cortex", "setting": "prefrontal cortex; [7]", "result": "considerably decreased; also recorded: decreased density"},
      {"measurement": "laminar distribution of parvalbumin immunoreactive terminals in the prefrontal cortex", "setting": "prefrontal cortex; [7]", "result": "altered laminar distribution of parvalbumin immunoreactive terminals"},
      {"measurement": "GABA transporter-1 immunoreactive synapses in the prefrontal cortex", "setting": "prefrontal cortex; adult rat, neonatal injections, vs control, listed as NGF", "result": "markedly diminished"},
      {"measurement": "density of tyrosine hydroxylase labeled (dopaminergic) fibers in lower layers of the prefrontal cortex", "setting": "prefrontal cortex; adult rat, neonatal injections, vs control, listed as Nerve growth factor", "result": "decreased dopaminergic fibers"},
      {"measurement": "gross structure throughout the brain", "setting": "prefrontal cortex; histological examination of neonatally injected rats", "result": "apparently normal gross structure"},
      {"measurement": "laminar distribution of GABAergic terminals in the prefrontal cortex", "setting": "prefrontal cortex; injected animals as adults", "result": "altered laminar distribution"},
      {"measurement": "lateral and third ventricular size", "setting": "prefrontal cortex; neonatally injected rats in comparison to control animals", "result": "moderately enlarged; also recorded: relatively larger"},
      {"measurement": "volume of lateral ventricles", "setting": "prefrontal cortex; rat sacrificed at 6 months of age, neonatal injections, vs control", "result": "increased considerably"}
    ]},
    {"compound": "C[C@H](N)Cc1ccccc1", "note": "[d-amphetamine, reference compound]", "values": [
      {"measurement": "effect of amphetamine injection on sniffing", "setting": "[3]; [8]", "result": "increases sniffing in both groups of animals"},
      {"measurement": "effect of amphetamine injection on total duration of locomotion", "setting": "[3]; [8]", "result": "increases the total duration of locomotion in both groups of animals"},
      {"measurement": "effect of amphetamine injection on sniffing", "setting": "[3]; at 10 weeks, d-amphetamine 5 mg/kg i.p. vs saline, control and experimental animals", "result": "increases sniffing in both groups of animals"}
    ]},
    {"compound": "NCCc1cc(O)c(O)cc1O", "note": "[6-hydroxydopamine]", "values": [
      {"measurement": "subcortical dopaminergic activity to systemic injections of amphetamine", "setting": "[4]", "result": "markedly enhanced subcortical dopaminergic activity"}
    ]}
  ]
}
